The values that follow are results of earlier work, collected in US20200046664A1, “METHOD FOR PREPARATION OF LIQUID ORAL COMPOSITION OF L-THYROXIN” (FTF PHARMA PRIVATE LIMITED, priority 2016, published 2020).

Take `N[C@@H](Cc1cc(I)c(Oc2cc(I)c(O)c(I)c2)c(I)c1)C(=O)[O-].[Na+]` [Levothyroxine sodium, Sodium (2S)-2-amino-3-[4-(4-hydroxy-3,5-diiodophenoxy)-3,5-diiodophenyl]propanoate]: for the setting “ethanol (96 percent)”, the “Solubility in ethanol (96 percent)” value was “slightly soluble”. In addition, the Solubility in water result (water) is “very slightly soluble”.
